{"source": "paper PMC11505918", "about": "“The Epiphyte Bacillus sp. G2112 Produces a Large Diversity of Nobilamide Peptides That Promote Biofilm Formation in Pseudomonads and Mycobacterium aurum” (Biomolecules, 2024)", "key": {"[1]": {"system": "Lysinibacillus sphaericus DSM1867", "conditions": "for inhibition zone against L. sphaericus: DSM1867, 0.1 mg/mL; for antibiotic activity against L. sphaericus (in words): agar diffusion, 5 µg/hole (Figure S97b)"}, "[2]": {"system": "Pseudomonas sp. G124", "assay": "Crystal violet biofilm formation assay, Pseudomonas sp. G124", "conditions": "crystal violet staining, 0.2 µg/µL, KB medium, 28 °C, 2 d"}, "[3]": {"system": "M. aurum", "assay": "Crystal violet biofilm formation assay, M. aurum", "conditions": "crystal violet staining, 0.2 µg/µL, KB medium, 28 °C, 2 d"}, "[4]": {"system": "P. syringae pv. glycinea", "assay": "Crystal violet biofilm formation assay, P. syringae pv. glycinea", "conditions": "crystal violet staining, 0.2 µg/µL, KB medium, 28 °C, 2 d"}, "[5]": {"system": "lung, gastric, and colorectal cancers", "conditions": "cited from earlier work"}, "[6]": {"system": "matrix metalloproteinase-2 and -9", "conditions": "lung, gastric, and colorectal cancers; cited from earlier work"}}, "note": "Where a SMILES comes first, the peptide text is derived from it. Bridges are numbered along the chain shown (N, C = ends). [ ]: non-standard residue; d: D form. The star is where a group is joined. d(aThr) = C[C@@H](O)[C@@H](N)C(=O)O; Isobutyryl = CC(C)C(=O)*; Dhb = C/C=C(\\N)C(=O)O; Propionyl = CCC(=O)*", "data": [{"compound": "C/C=C1\\NC(=O)[C@H](C)NC(=O)[C@H](C(C)C)NC(=O)[C@H](NC(=O)[C@H](Cc2ccccc2)NC(=O)[C@@H](CC(C)C)NC(=O)[C@@H](Cc2ccccc2)NC(=O)CC)[C@@H](C)OC1=O", "note": "[A-3302-A (2), A-3302-A] (Propionyl-[dF][dL]F[d(aThr)]VA[Dhb]; ester 4-C)", "values": [{"measurement": "inhibition zone against L. sphaericus", "setting": "[1]", "value": 18.3, "unit": "mm"}, {"measurement": "antibiotic activity against L. sphaericus (in words)", "setting": "[1]", "value": "powerful antibiotic activity"}]}, {"compound": "nobilamide A [nobilamide A (4)]", "values": [{"measurement": "effect on biofilm formation in Pseudomonas sp. G124 (in words)", "setting": "[2]", "value": "strongly induced"}, {"measurement": "antibiotic activity against L. sphaericus (in words)", "setting": "[1]", "value": "did not exhibit antimicrobial activity"}, {"measurement": "effect on biofilm formation in M. aurum (in words)", "setting": "[3]", "value": "strongly induced"}, {"measurement": "effect on biofilm formation in P. syringae pv. glycinea (in words)", "setting": "[4]", "value": "strongly induced"}]}, {"compound": "C/C=C1\\NC(=O)[C@H](C)NC(=O)[C@H](C(C)C)NC(=O)[C@H](NC(=O)[C@H](Cc2ccccc2)NC(=O)[C@@H](CC(C)C)NC(=O)[C@@H](Cc2ccccc2)NC(=O)C(C)C)[C@@H](C)OC1=O", "note": "[nobilamide J (9), nobilamide J] (Isobutyryl-[dF][dL]F[d(aThr)]VA[Dhb]; ester 4-C)", "values": [{"measurement": "inhibition zone against L. sphaericus", "setting": "[1]", "value": 21.3, "unit": "mm"}, {"measurement": "antibiotic activity against L. sphaericus (in words)", "setting": "[1]", "value": "powerful antibiotic activity"}]}, {"compound": "nobilamide I [nobilamide I (8)]", "values": [{"measurement": "effect on biofilm formation in Pseudomonas sp. G124 (in words)", "setting": "[2]", "value": "less clear effect"}, {"measurement": "effect on biofilm formation in M. aurum (in words)", "setting": "[3]", "value": "less clear effect"}, {"measurement": "cancer cell motility (in words)", "setting": "[5]", "value": "suppressed"}, {"measurement": "effect on biofilm formation in P. syringae pv. glycinea (in words)", "setting": "[4]", "value": "worked best"}, {"measurement": "expression of the matrix metalloproteinase-2 and -9 (in words)", "setting": "[6]", "value": "suppressed"}]}, {"compound": "nobilamide W [nobilamide W (22)]", "values": [{"measurement": "effect on biofilm formation in Pseudomonas sp. G124 (in words)", "setting": "[2]", "value": "strongly induced"}, {"measurement": "effect on biofilm formation in M. aurum (in words)", "setting": "[3]", "value": "strongly induced"}, {"measurement": "effect on biofilm formation in P. syringae pv. glycinea (in words)", "setting": "[4]", "value": "strongly induced"}]}, {"compound": "nobilamide S [nobilamide S (18)]", "values": [{"measurement": "effect on biofilm formation in Pseudomonas sp. G124 (in words)", "setting": "[2]", "value": "induced biofilm formation"}, {"measurement": "effect on biofilm formation in P. syringae pv. glycinea (in words)", "setting": "[4]", "value": "did not promote biofilm formation"}]}]}
